From US10966426B2, “Herbicidal compositions comprising phenylpyrimidines” (BASF SE, priority 2016, dated 2021)
Values joined by “and” are separate entries in the source; they are usually repeats but may differ in a detail not shown here. Equal entries are not always repeated.

Columns and labels:
Format in all cases: in vivo
Brachiaria decumbens = experiment: greenhouse post-emergence treatment, BRADC; conditions: 20 DAT; for % activity: BRADC
Method: (§1) The culture containers used were plastic pots containing loamy sand with approximately 3.0% of humus as substrate. The seeds of the test plants were sown separately for each species.
(§2) For the post-emergence treatment, the test plants were grown to a plant height of from 3 to 15 cm, depending on the plant habit, and only then treated with the active compounds which had been suspended or emulsified in water. To this end, the test plants were either sown directly, and grown in the same containers, or they were first grown separately as seedlings and transplanted into the test containers a few days prior to treatment.
(§3) Depending on the species, the plants were kept at 10-25° C. and 20-35° C., respectively.
(§4) The test period extended over 2 to 4 weeks. During this time, the plants were tended and their response to the individual treatments was evaluated.
(§5) Evaluation was carried out using a scale from 0 to 100. 100 means no emergence of the plants, or complete destruction of at least the above-ground parts, and 0 means no damage or normal course of growth. A good herbicidal activity is given at values of at least 70, and very good herbicidal activity is given at values of at least 85.
(§6) The respective stated components A and B, and if appropriate, C were formulated as a 10% by weight strength emulsion concentrate and, with addition of the amount of solvent system, introduced into the spray liquor used for applying the active compound. In the examples, the solvent used was water.
(§7) In the examples below, using the method of S. R. Colby (1967) “Calculating synergistic and antagonistic responses of herbicide combinations”, Weeds 15, p. 22ff., the value E, which is expected if the activity of the individual active compounds is only additive, was calculated. E=X+Y−(X·Y/100) where X=effect in percent using herbicide A at an application rate a; • Y=effect in percent using herbicide B at application rate b; • E=expected effect (in %) of herbicide A+herbicide B at application rates a+b.

Bromus sterilis = experiment: greenhouse post-emergence treatment, BROST; conditions: 20 DAT; for % activity: BROST
Method: as §1
(§8) To this end, the test plants were either sown directly, and grown in the same containers, or they were first grown separately as seedlings and transplanted into the test containers a few days prior to treatment.
as §3, §4, §5
(§9) In the examples, the solvent used was water.
(§10) In the examples below, using the method of S. R. Colby (1967) “Calculating synergistic and antagonistic responses of herbicide combinations”, Weeds 15, p. […] E=X+Y−(X·Y/100) where X=effect in percent using herbicide A at an application rate a; • Y=effect in percent using herbicide B at application rate b; • E=expected effect (in %) of herbicide A+herbicide B at application rates a+b.

Digitaria sanguinalis = experiment: greenhouse post-emergence treatment, DIGSA; conditions: 20 DAT; for % activity: DIGSA
Method: as §1, §8, §3, §4, §5, §9, §10

Alopecurus myosuroides = experiment: greenhouse post-emergence treatment, ALOMY; conditions: Alopecurus myosuroides, 480 h, 20 DAT, ALOMY
Method: as §1, §8, §3, §4, §5, §9, §10

Avena fatua = experiment: greenhouse post-emergence treatment, AVEFA; conditions: Avena fatua, 480 h, 20 DAT
Method: as §1, §8, §3, §4, §5, §9, §10

Lolium multiflorum = experiment: greenhouse post-emergence treatment, LOLMU; conditions: 20 DAT; for % activity: LOLMU
Method: as §1, §8, §3, §4, §5, §9, §10

Setaria viridis = experiment: greenhouse post-emergence treatment, SETVI; conditions: 20 DAT; for % activity: SETVI
Method: as §1, §8, §3, §4, §5, §9, §10

Papaver rhoeas = experiment: greenhouse post-emergence treatment, PAPRH; conditions: 20 DAT
Method: as §1, §2, §3, §4, §5, §6, §7

Ambrosia elatior = experiment: greenhouse post-emergence treatment, AMBEL; conditions: 20 DAT
Method: as §1, §2, §3, §4, §5, §6, §7

Matricaria chamomilla = experiment: greenhouse post-emergence treatment, MATCH; conditions: MATCH, 20 DAT
Method: as §1, §2, §3, §4, §5, §6, §7

Galium aparine = experiment: greenhouse post-emergence treatment, GALAP; conditions: GALAP, 20 DAT
Method: as §1, §2, §3, §4, §5, §6, §7

[1] = solo pyroxsulam (SC 30 g/l) 1.875 gai/ha
[2] = solo pyroxsulam (SC 30 g/l) 7.5 gai/ha
[3] = solo pyroxsulam (SC 30 g/l) 3.75 gai/ha

`COc1nc(C)nc(NC(=O)NS(=O)(=O)c2cc(I)ccc2C(=O)O)n1` [iodosulfuron] gave an inhibition at […] (Brachiaria decumbens; Urochloa decumbens, 480 h, iodosulfuron solo 2.5 gai/ha) of 20%, an inhibition at 5 g/ha (Brachiaria decumbens; Urochloa decumbens, 480 h, iodosulfuron solo 5 gai/ha) of 30% and an inhibition at 1.25 g/ha (Bromus sterilis; Bromus sterilis, 480 h, iodosulfuron solo 1.25 gai/ha) of 0%. It also gave an inhibition at […] (Bromus sterilis; Bromus sterilis, 480 h, iodosulfuron solo 2.5 gai/ha) of 0%, an inhibition at 5 g/ha (Bromus sterilis; Bromus sterilis, 480 h, iodosulfuron solo 5 gai/ha) of 0% and an inhibition at 1.25 g/ha (Digitaria sanguinalis; Digitaria sanguinalis, 480 h, iodosulfuron solo 1.25 gai/ha) of 0%. The inhibition at […] (Digitaria sanguinalis; Digitaria sanguinalis, 480 h, iodosulfuron solo 2.5 gai/ha) was 20% and the inhibition at 5 g/ha (Digitaria sanguinalis; Digitaria sanguinalis, 480 h, iodosulfuron solo 5 gai/ha) was 50%.

Work on `CCc1cc(C)cc(CC)c1-c1c(OC(=O)C(C)(C)C)n2n(c1=O)CCOCC2` [pinoxaden] yielded an inhibition at […] (Alopecurus myosuroides; pinoxaden solo 7.5 gai/ha) of 75%, an inhibition at 60 g/ha (Alopecurus myosuroides; pinoxaden solo 60 gai/ha) of 94% and a pest or weed control at […] (Alopecurus myosuroides; solo, EC 50 g/l, 7.5 gai/ha) of 48%. For the same compound, the pest or weed control at […] (Avena fatua; solo, EC 50 g/l, AVEFA, 7.5 gai/ha) was 33%.

For `COc1cc(OC)n2nc(NS(=O)(=O)c3c(C(F)(F)F)ccnc3OC)nc2n1` [pyroxsulam], the “% activity” value (Brachiaria decumbens; [1]) was 20%, the “% activity” value (Brachiaria decumbens; pyroxsulam solo 1.875 gai/ha) was 20% and the “% activity” value (Brachiaria decumbens; pyroxsulam solo 3.75 gai/ha) was 75%. The “% activity” value (Bromus sterilis; [1]) was 60%, the “% activity” value (Bromus sterilis; pyroxsulam solo 1.875 gai/ha) was 60% and the “% activity” value (Bromus sterilis; pyroxsulam solo 3.75 gai/ha) was 70%. For the same compound, the “% activity” value (Bromus sterilis; pyroxsulam solo 7.5 gai/ha) was 75%, the “% activity” value (Lolium multiflorum; pyroxsulam solo 1.875 gai/ha) was 60% and 80% and the “% activity” value (Lolium multiflorum; pyroxsulam solo 3.75 gai/ha) was 65%. The “% activity” value (Lolium multiflorum; pyroxsulam solo 7.5 gai/ha) was 80%, the “% activity” value (Setaria viridis; [1]) was 75% and the “% activity” value (Setaria viridis; pyroxsulam solo 1.875 gai/ha) was 75%. For the same compound, the “% activity” value (Digitaria sanguinalis; [2]) was 80%, the “% activity” value (Digitaria sanguinalis; pyroxsulam solo 1.875 gai/ha) was 65% and the “% activity” value (Digitaria sanguinalis; pyroxsulam solo 3.75 gai/ha) was 75%. The “% activity” value (Digitaria sanguinalis; pyroxsulam solo 7.5 gai/ha) was 80%, the “% activity” value (Papaver rhoeas; PAPRH, solo pyroxsulam (SC 30 g/l) 1.875 gai/ha) was 0% and the “% activity” value (Papaver rhoeas; PAPRH, solo pyroxsulam (SC 30 g/l) 3.75 gai/ha) was 0%. The “% activity” value (Papaver rhoeas; PAPRH, solo pyroxsulam (SC 30 g/l) 7.5 gai/ha) was 30%, the “% activity” value (Papaver rhoeas; PAPRH, solo pyroxsulam (SC 30 g/l) 15 gai/ha) was 70% and the “% activity” value (Papaver rhoeas; pyroxsulam solo 1.875 gai/ha, PAPRH) was 0%. The “% activity” value (Papaver rhoeas; pyroxsulam solo 3.75 gai/ha, PAPRH) was 0%, the “% activity” value (Papaver rhoeas; pyroxsulam solo 7.5 gai/ha, PAPRH) was 30% and the “% activity” value (Papaver rhoeas; pyroxsulam solo 15 gai/ha, PAPRH) was 70%. The “% activity” value (Ambrosia elatior; pyroxsulam solo 1.875 gai/ha, AMBEL) was 70%, the “% activity” value (Matricaria chamomilla; [1]) was 30% and the “% activity” value (Matricaria chamomilla; [3]) was 60%. For the same compound, the “% activity” value (Matricaria chamomilla; solo pyroxsulam (SC 30 g/l) 15 gai/ha) was 80%, the “% activity” value (Matricaria chamomilla; pyroxsulam solo 1.875 gai/ha) was 30% and the “% activity” value (Matricaria chamomilla; pyroxsulam solo 3.75 gai/ha) was 60%. The “% activity” value (Matricaria chamomilla; pyroxsulam solo 15 gai/ha) was 80%, the “% activity” value (Galium aparine; [1]) was 60% and the “% activity” value (Galium aparine; [3]) was 65%. The “% activity” value (Galium aparine; [2]) was 75%, the “% activity” value (Galium aparine; pyroxsulam solo 1.875 gai/ha) was 60% and the “% activity” value (Galium aparine; pyroxsulam solo 3.75 gai/ha) was 65%. For the same compound, the “% activity” value (Galium aparine; pyroxsulam solo 7.5 gai/ha) was 75% and the “% activity” value (Galium aparine; pyroxsulam solo 15 gai/ha) was 90%.

With `CCS(=O)(=O)c1nc2ccccn2c1S(=O)(=O)NC(=O)Nc1nc(OC)cc(OC)n1` [sulfosulfuron] the inhibition at […] (Brachiaria decumbens; Urochloa decumbens, 480 h, sulfosulfuron solo 1.5 gai/ha) was 20%, the inhibition at 12 g/ha (Brachiaria decumbens; Urochloa decumbens, 480 h, sulfosulfuron solo 12 gai/ha) was 80% and the inhibition at […] (Bromus sterilis; Bromus sterilis, 480 h, sulfosulfuron solo 1.5 gai/ha) was 0%. For the same compound, the inhibition at 3 g/ha (Bromus sterilis; Bromus sterilis, 480 h, sulfosulfuron solo 3 gai/ha) was 50%, the inhibition at 12 g/ha (Bromus sterilis; Bromus sterilis, 480 h, sulfosulfuron solo 12 gai/ha) was 70% and the inhibition at […] (Lolium multiflorum; Lolium multiflorum, 480 h, sulfosulfuron solo 1.5 gai/ha) was 0%. It also gave an inhibition at 3 g/ha (Lolium multiflorum; Lolium multiflorum, 480 h, sulfosulfuron solo 3 gai/ha) of 0%, an inhibition at 6 g/ha (Lolium multiflorum; Lolium multiflorum, 480 h, sulfosulfuron solo 6 gai/ha) of 10% and an inhibition at 12 g/ha (Lolium multiflorum; Lolium multiflorum, 480 h, sulfosulfuron solo 12 gai/ha) of 35%. For the same compound, the inhibition at […] (Setaria viridis; Setaria viridis, 480 h, sulfosulfuron solo 1.5 gai/ha) was 50%, the inhibition at 6 g/ha (Setaria viridis; Setaria viridis, 480 h, sulfosulfuron solo 6 gai/ha) was 65% and the inhibition at 12 g/ha (Setaria viridis; Setaria viridis, 480 h, sulfosulfuron solo 12 gai/ha) was 75%. The inhibition at […] (Digitaria sanguinalis; Digitaria sanguinalis, 480 h, sulfosulfuron solo 1.5 gai/ha) was 0%, the inhibition at 3 g/ha (Digitaria sanguinalis; Digitaria sanguinalis, 480 h, sulfosulfuron solo 3 gai/ha) was 20% and the inhibition at 12 g/ha (Digitaria sanguinalis; Digitaria sanguinalis, 480 h, sulfosulfuron solo 12 gai/ha) was 65%. It also gave an inhibition at […] (Papaver rhoeas; Papaver rhoeas, 480 h, sulfosulfuron solo 1.5 gai/ha) of 25%, an inhibition at 3 g/ha (Papaver rhoeas; Papaver rhoeas, 480 h, sulfosulfuron solo 3 gai/ha) of 80% and a pest or weed control at […] (Papaver rhoeas; Papaver rhoeas, 480 h, PAPRH, solo sulfosulfuron (WG 80%) 1.5 gai/ha) of 25%. The inhibition at […] (Ambrosia elatior; Ambrosia artemisiifolia, 480 h, sulfosulfuron solo 1.5 gai/ha) was 70%, the inhibition at […] (Avena fatua; sulfosulfuron solo 1.5 gai/ha) was 0% and the inhibition at 3 g/ha (Avena fatua; sulfosulfuron solo 3 gai/ha) was 0%. For the same compound, the pest or weed control at […] (Galium aparine; Galium aparine, 480 h, solo sulfosulfuron (WG 80%) 1.5 gai/ha) was 65% and the pest or weed control at 3 g/ha (Galium aparine; Galium aparine, 480 h, solo sulfosulfuron (WG 80%) 3 gai/ha) was 85%.
